Results on 33 compounds are retold here after the METLIN SMRT retention time set (Domingo-Almenara et al. 2019).

SMILES strings stand for the structures.

The series is described as follows: gradient 5% acetonitrile 3 min, to 50% in 2 min, to 85% in 15 min, held 3 min, 100 µL/min. Particulars: column: Zorbax Extend-C18 2.1 x 50 mm; eluents: water / acetonitrile, 0.1% formic acid. The method in brief: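 Retention times of pure standards were taken from adduct peaks that were selected by computer and manually inspected. Over 3 months, mixtures of ~100 molecules were run by HPLC–quadrupole time-of-flight mass spectrometry in positive and negative ionization mode. The Zorbax Extend-C18 column (2.1 × 50 mm, 1.8 μm) ran at 100 μL/min in water and acetonitrile, each containing 0.1% formic acid, with 40 μL dead volume and 900 μL dwell volume.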
On to `CC(C)n1c(=O)oc2cc(-c3noc(CNC(=O)Cc4ccccc4)n3)ccc21`, for which the RP-LC retention time amounted to 842 s.

Take `CCOCC(=O)N1CCCN(C2=NS(=O)(=O)C(c3ccc(F)cc3)=C2C)CC1`: the RP-LC retention time turned out to be 711 s.

Turning to `CCCn1cc(CCNS(=O)(=O)c2ccccc2CC)c2cccnc21`, the RP-LC retention time is 923 s.

In the case of `CCn1c(N2CCCC(C(=O)NCc3ccco3)C2)cc(=O)n(C)c1=O` (stereo not drawn), the RP-LC retention time amounted to 731 s.

For the compound `CCn1c(=O)c(C(=O)NCCCc2ccccc2)nc2cccnc21`, the RP-LC retention time was found to be 586 s.

`Cc1ccc(S(=O)(=O)NCC2CCN(C(=O)Oc3ccccc3)CC2)s1` yielded an RP-LC retention time of 576 s.

Compound `CC(C)(C)c1csc(-c2csc(S(=O)(=O)NCc3ccc(F)cc3)c2)n1` yielded an RP-LC retention time of 1220 s.

Turning to `COc1ccc(OC)c(NC(=O)N2CCN(c3ccc(=O)n(-c4ccc(C)c(C)c4)n3)CC2)c1`, the RP-LC retention time worked out at 880 s.

With `Cc1nccn1C1CN(S(=O)(=O)c2cccc(F)c2)C1`, the RP-LC retention time amounted to 604 s.

Consider `c1cn(-c2ccc(SC3CCCC3)nn2)cn1`, for which the RP-LC retention time turned out to be 604 s.

The compound `O=C(Cn1ccc2ccc(N3CCOCC3)nc21)N1CCN(c2ccc(Cl)cc2)CC1` registered an RP-LC retention time of 1000 s.

`CSc1ccc(-c2noc(Cc3nnc(-c4ccc(F)cc4)o3)n2)cc1` came in with an RP-LC retention time of 1070 s.

In turn, `COc1ccc(C2CCCN2C(=O)c2cnn3cccnc23)cc1` (stereo not drawn) gave an RP-LC retention time of 694 s.

In turn, `CCSc1nnc(-c2nn(C)c3c2CN(S(=O)(=O)c2cc(F)ccc2C)CC3)n1CC` showed an RP-LC retention time of 988 s.

`COc1cc(NC(=O)Cn2c(=O)n(-c3ccc(F)cc3)c3ncccc32)cc(OC)c1` registered an RP-LC retention time of 849 s.

In the case of `CCN1CCC(N(Cc2ccc3c(c2)OCO3)C(=O)Nc2ccc(OC)c(OC)c2)CC1`, the RP-LC retention time is 616 s.

As to `Fc1cccc(-c2nnc3sc(-c4ccc5ccccc5n4)nn23)c1`, the RP-LC retention time was determined as 1180 s.

For `Cn1ncc(N2CCCC(C(=O)NC3CCCCCCC3)C2)cc1=O` (stereo not drawn), the RP-LC retention time stood at 751 s.

As to `Cc1nc2cc(-c3noc(-c4cc(F)ccc4Cl)n3)ccc2o1`, the RP-LC retention time worked out at 1150 s.

Consider `CCCNC(=O)C1CCN(c2ccc(SCC(=O)NCc3ccc(C(F)(F)F)cc3)nn2)CC1`, for which the RP-LC retention time was determined as 675 s.

For the compound `CCOc1ccc(-c2cc3c(SCC)nccn3n2)cc1`, the RP-LC retention time is 1300 s.

In turn, `O=C(CCCN1C(=O)c2cccc3cccc(c23)C1=O)Nc1cccnc1` registered an RP-LC retention time of 571 s.

In turn, `COc1ccccc1Nc1nc(-c2ccccc2)c(CC(=O)O)s1` displayed an RP-LC retention time of 891 s.

For the compound `COc1ccc(-c2csc(NC(=O)CS(=O)(=O)c3ccc(Cl)cc3)n2)c(OC)c1`, the RP-LC retention time turned out to be 1020 s.

Turning to `CC(=O)N1CCCN(C(=O)c2ccc(C#N)cc2)CC1`, the RP-LC retention time was 589 s.

For the compound `CCC(=O)Nc1cc(C(=O)NCc2ccc(N3CCOCC3)cc2)c2ccc(C)nc2c1`, the RP-LC retention time is 585 s.

Compound `CCOC(=O)CNC(=O)N1CCCC1c1ccc(F)cc1` (stereo not drawn) registered an RP-LC retention time of 760 s.

In the case of `COc1cccc(CNC(=O)C2(C)CCCN(C(=O)Nc3cccc(Br)c3)C2)c1` (stereo not drawn), the RP-LC retention time was found to be 993 s.

As to `CC(NC(=O)c1ccc2nc(-c3ccccc3)cn2c1)c1ccccn1` (stereo not drawn), the RP-LC retention time is 572 s.

`CCn1cc(C)c(C(=O)O)c1CC(=O)NCCN1CCCc2ccccc21` yielded an RP-LC retention time of 711 s.

Turning to `Cc1c(C(=O)N2CCN(Cc3nc(C(C)(C)C)cs3)CC2)cccc1[N+](=O)[O-]`, the RP-LC retention time came out at 740 s.

In the case of `CC1CCCCN1CCCNC(=O)CC1CCN(C(=O)C2CCCCC2)CC1` (stereo not drawn), the RP-LC retention time was 605 s.

In turn, `CCC(=O)N1CCc2sc(C(=O)N3CCN(c4ccc(Cl)cc4)CC3)cc2C1` had an RP-LC retention time of 899 s.
